{"source": "PubChem BioAssay AID1259411", "about": "(Chemical Carcinogenesis Research Information System (CCRIS), 2018)", "test_system": "rodent carcinogenicity bioassays, tumor incidence", "test": "CCRIS carcinogenicity studies", "method_in_brief": "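NCI-built, expert-reviewed records of carcinogenicity and related test outcomes (mutagenicity, tumor promotion/inhibition) compiled from published and report sources, historical span 1985-2011, not updated.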", "note": "The source made the active and inactive calls. The rule behind the calls is not given here."}
{"smiles": "C=C(C)CN(CC)c1c([N+](=O)[O-])cc(C(F)(F)F)cc1[N+](=O)[O-]", "values": [{"measurement": "carcinogen call", "setting": "Species: Mouse, Strain/Sex: B6C3F1/Female (40/Experimental group; 60/Control group), Route: Oral, Dose: 0, 100, 400, 1500 ppm of 94.5% ethalfluralin in diet for 2 yr, study duration 2 yr (2 replicate studies)., Dose: 0, 100, 400, 1500 ppm of 94.5% ethalfluralin in diet for 2 yr, study duration 2 yr (2 replicate studies).", "result": "inactive; negative"}, {"measurement": "carcinogen call", "setting": "Species: Mouse, Strain/Sex: B6C3F1/Male (40/Experimental group; 60/Control group), Route: Oral, Dose: 0, 100, 400, 1500 ppm of 94.5% ethalfluralin in diet for 2 yr, study duration 2 yr (2 replicate studies)., Dose: 0, 100, 400, 1500 ppm of 94.5% ethalfluralin in diet for 2 yr, study duration 2 yr (2 replicate studies).", "result": "inactive; negative"}, {"measurement": "carcinogen call", "setting": "Species: Rat, Strain/Sex: Fischer 344/Female (30/Group; replicate studies using 94.5% ethalfluralin), Route: Oral, Dose: 0, 0.01, 0.025, 0.075% (0; 4.2; 10.7; 32.3 mg/kg/d) in diet for 2 yr, study duration 2 yr, Dose: 0, 0.01, 0.025, 0.075% (0; 4.2; 10.7; 32.3 mg/kg/d) in diet for 2 yr, study duration 2 yr, Tumor Site: Type of Lesion: Mammary gland: Benign fibroadenomas", "result": "active; positive"}, {"measurement": "carcinogen call", "setting": "Species: Rat, Strain/Sex: Fischer 344/Male (30/Group; replicate studies using 94.5% ethalfluralin), Route: Oral, Dose: 0, 0.01, 0.025, 0.075% (0; 4.2; 10.7; 32.3 mg/kg/d) in diet for 2 yr, study duration 2 yr, Dose: 0, 0.01, 0.025, 0.075% (0; 4.2; 10.7; 32.3 mg/kg/d) in diet for 2 yr, study duration 2 yr", "result": "inactive; negative"}]}
{"smiles": "CCC1CO1", "note": "(stereo not drawn)", "values": [{"measurement": "carcinogen call", "setting": "Species: MOUSE, Strain/Sex: B6C3F1/FEMALE, Route: INHALATION, Dose: 0, 50, 100 PPM 6 HR/D 5D/WK FOR 102 WK (STUDY DURATION: 103 WK), Dose: 0, 50, 100 PPM 6 HR/D 5D/WK FOR 102 WK (STUDY DURATION: 103 WK)", "result": "inactive; negative"}, {"measurement": "carcinogen call", "setting": "Species: MOUSE, Strain/Sex: B6C3F1/MALE, Route: INHALATION, Dose: 0, 50, 100 PPM 6 HR/D 5D/WK FOR 102 WK (STUDY DURATION: 103 WK), Dose: 0, 50, 100 PPM 6 HR/D 5D/WK FOR 102 WK (STUDY DURATION: 103 WK)", "result": "inactive; negative"}, {"measurement": "carcinogen call", "setting": "Species: RAT, Strain/Sex: F344/FEMALE, Route: INHALATION, Dose: 0, 200, 400 PPM 6 HR/D 5 D/WK FOR 103 WK (STUDY DURATION: 104 WK), Dose: 0, 200, 400 PPM 6 HR/D 5 D/WK FOR 103 WK (STUDY DURATION: 104 WK), Tumor Site: Type of Lesion: NASAL CAVITY: PAPILLARY ADENOMA", "result": "equivocal"}, {"measurement": "carcinogen call", "setting": "Species: RAT, Strain/Sex: F344/MALE, Route: INHALATION, Dose: 0, 200, 400 PPM 6 HR/D 5D/WK FOR 103 WK (STUDY DURATION: 104 WK), Dose: 0, 200, 400 PPM 6 HR/D 5D/WK FOR 103 WK (STUDY DURATION: 104 WK), Tumor Site: Type of Lesion: NASAL CAVITY: PAPILLARY ADENOMA, LUNG: ALVEOLAR/BRONCHIOLAR CARCINOMA, LUNG: ALVEOLAR/BRONCHIOLAR ADENOMA OR CARCINOMA, Tumor Site: Type of Lesion: NASAL CAVITY: PAPILLARY ADENOMA, LUNG: ALVEOLAR/BRONCHIOLAR CARCINOMA, LUNG: ALVEOLAR/BRONCHIOLAR ADENOMA OR CARCINOMA", "result": "active; positive"}]}
{"smiles": "O[C@H]1C=Cc2c(ccc3ncccc23)[C@@H]1O", "values": [{"measurement": "carcinogen call", "setting": "Species: MOUSE, Strain/Sex: CD-1/FEMALE, Route: INTRAPERITONEAL, Dose: 0, 5, 10 AND 20 µL OF A 0.05 MOLAR SOLUTION ON DAYS 1, 8 AND 15 OF LIFE RESPECTIVELY (TOTAL DOSE: 1.75 UMOL) (STUDY DURA, Dose: 0, 5, 10 AND 20 µL OF A 0.05 MOLAR SOLUTION ON DAYS 1, 8 AND 15 OF LIFE RESPECTIVELY (TOTAL DOSE: 1.75 UMOL) (STUDY DURA", "result": "inactive; negative"}, {"measurement": "carcinogen call", "setting": "Species: MOUSE, Strain/Sex: CD-1/MALE, Route: INTRAPERITONEAL, Dose: 0, 5, 10 AND 20 µL OF A 0.05 MOLAR SOLUTION ON DAYS 1, 8 AND 15 OF LIFE RESPECTIVELY (TOTAL DOSE: 1.75 UMOL) (STUDY DURA, Dose: 0, 5, 10 AND 20 µL OF A 0.05 MOLAR SOLUTION ON DAYS 1, 8 AND 15 OF LIFE RESPECTIVELY (TOTAL DOSE: 1.75 UMOL) (STUDY DURA", "result": "inactive; negative"}]}
{"smiles": "CCCCOCCOCCOCc1cc2c(cc1CCC)OCO2", "values": [{"measurement": "carcinogen call", "setting": "Species: MOUSE, Strain/Sex: B6C3F1/FEMALE, Route: ORAL, Dose: 0, 1036, 2804 PPM IN DIET, TWA, Dose: 0, 1036, 2804 PPM IN DIET, TWA", "result": "inactive; negative"}, {"measurement": "carcinogen call", "setting": "Species: MOUSE, Strain/Sex: B6C3F1/MALE, Route: ORAL, Dose: 0, 1036, 2804 PPM IN DIET, TWA, Dose: 0, 1036, 2804 PPM IN DIET, TWA", "result": "inactive; negative"}, {"measurement": "carcinogen call", "setting": "Species: MOUSE, Strain/Sex: CD-1/FEMALE, Route: ORAL, Dose: 0, 0.6, 1.2% IN DIET FOR 52 WK (STUDY DURATION: 52 WK), Dose: 0, 0.6, 1.2% IN DIET FOR 52 WK (STUDY DURATION: 52 WK), Tumor Site: Type of Lesion: LIVER: HEPATOCELLULAR ADENOMA, HEPATOCELLULAR CARCINOMA", "result": "active; positive"}, {"measurement": "carcinogen call", "setting": "Species: MOUSE, Strain/Sex: CD-1/FEMALE, Route: ORAL, Dose: 0, 30, 100, 300 MG/KG/D IN DIET FOR 79 WK (STUDY DURATION: 79 WK), Dose: 0, 30, 100, 300 MG/KG/D IN DIET FOR 79 WK (STUDY DURATION: 79 WK), Tumor Site: Type of Lesion: LIVER: HEPATOCELLULAR ADENOMA", "result": "active; positive"}, {"measurement": "carcinogen call", "setting": "Species: MOUSE, Strain/Sex: CD-1/MALE, Route: ORAL, Dose: 0, 0.6, 1.2% IN DIET FOR 12 MO (STUDY DURATION: 12 MO), Dose: 0, 0.6, 1.2% IN DIET FOR 12 MO (STUDY DURATION: 12 MO), Tumor Site: Type of Lesion: LIVER: HEPATOCELLULAR ADENOMA, HEPATOCELLULAR CARCINOMA, HEMANGIOENDOTHELIAL SARCOMA (SMALL), HEMANGIOENDOTHELIAL SARCOM", "result": "active; positive"}, {"measurement": "carcinogen call", "setting": "Species: MOUSE, Strain/Sex: CD-1/MALE, Route: ORAL, Dose: 0, 0.6, 1.2% IN DIET FOR 52 WK (STUDY DURATION: 52 WK), Dose: 0, 0.6, 1.2% IN DIET FOR 52 WK (STUDY DURATION: 52 WK), Tumor Site: Type of Lesion: LIVER: HEPATOCELLULAR ADENOMA, HEPATOCELLULAR CARCINOMA", "result": "active; positive"}, {"measurement": "carcinogen call", "setting": "Species: MOUSE, Strain/Sex: CD-1/MALE, Route: ORAL, Dose: 0, 30, 100, 300 MG/KG/D IN DIET FOR 79 WK (STUDY DURATION: 79 WK), Dose: 0, 30, 100, 300 MG/KG/D IN DIET FOR 79 WK (STUDY DURATION: 79 WK), Tumor Site: Type of Lesion: LIVER: HEPATOCELLULAR ADENOMA", "result": "active; positive"}, {"measurement": "carcinogen call", "setting": "Species: RAT, Strain/Sex: F344/FEMALE, Route: ORAL, Dose: 0, 0.5, 1% IN DIET FOR 2 YR (STUDY DURATION: 110 WK), Dose: 0, 0.5, 1% IN DIET FOR 2 YR (STUDY DURATION: 110 WK)", "result": "inactive; negative"}, {"measurement": "carcinogen call", "setting": "Species: RAT, Strain/Sex: F344/FEMALE, Route: ORAL, Dose: 0, 0.6, 1.2, 2.4% IN DIET FOR 96 WK (STUDY DURATION: 96 WK), Dose: 0, 0.6, 1.2, 2.4% IN DIET FOR 96 WK (STUDY DURATION: 96 WK), Tumor Site: Type of Lesion: LIVER: HEPATOCELLULAR ADENOMA, HEPATOCELLULAR CARCINOMA", "result": "active; positive"}, {"measurement": "carcinogen call", "setting": "Species: RAT, Strain/Sex: F344/FEMALE, Route: ORAL, Dose: 0, 5000, 10000 PPM IN DIET, Dose: 0, 5000, 10000 PPM IN DIET", "result": "inactive; negative"}, {"measurement": "carcinogen call", "setting": "Species: RAT, Strain/Sex: F344/MALE, Route: ORAL, Dose: 0, 0.5, 1% IN DIET FOR 2 YR (STUDY DURATION: 110 WK), Dose: 0, 0.5, 1% IN DIET FOR 2 YR (STUDY DURATION: 110 WK)", "result": "inactive; negative"}, {"measurement": "carcinogen call", "setting": "Species: RAT, Strain/Sex: F344/MALE, Route: ORAL, Dose: 0, 0.6, 1.2, 2.4% IN DIET FOR 95 WK (STUDY DURATION: 95 WK), Dose: 0, 0.6, 1.2, 2.4% IN DIET FOR 95 WK (STUDY DURATION: 95 WK), Tumor Site: Type of Lesion: LIVER: HEPATOCELLULAR ADENOMA, HEPATOCELLULAR CARCINOMA", "result": "active; positive"}, {"measurement": "carcinogen call", "setting": "Species: RAT, Strain/Sex: F344/MALE, Route: ORAL, Dose: 0, 5000, 10000 PPM IN DIET, Dose: 0, 5000, 10000 PPM IN DIET", "result": "inactive; negative"}, {"measurement": "carcinogen call", "setting": "Species: RAT, Strain/Sex: SPRAGUE-DAWLEY/FEMALE, Route: ORAL, Dose: 0, 30, 100, 500 MG/KG/D IN DIET FOR 104-105 WK (STUDY DURATION: 105 WK), Dose: 0, 30, 100, 500 MG/KG/D IN DIET FOR 104-105 WK (STUDY DURATION: 105 WK)", "result": "inactive; negative"}, {"measurement": "carcinogen call", "setting": "Species: RAT, Strain/Sex: SPRAGUE-DAWLEY/MALE, Route: ORAL, Dose: 0, 30, 100, 500 MG/KG/D IN DIET FOR 104-105 WK (STUDY DURATION: 105 WK), Dose: 0, 30, 100, 500 MG/KG/D IN DIET FOR 104-105 WK (STUDY DURATION: 105 WK)", "result": "inactive; negative"}]}
{"smiles": "NNC(=O)c1cccnc1", "values": [{"measurement": "carcinogen call", "setting": "Species: MOUSE, Strain/Sex: SWISS/FEMALE, Route: ORAL, Dose: 0, 0.125% IN DRINKING WATER FOR LIFE, STUDY DURATION: 100-110 WK, Dose: 0, 0.125% IN DRINKING WATER FOR LIFE, STUDY DURATION: 100-110 WK, Tumor Site: Type of Lesion: LUNG: ADENOMA, ADENOMA OR ADENOCARCINOMA", "result": "active; positive"}, {"measurement": "carcinogen call", "setting": "Species: MOUSE, Strain/Sex: SWISS/MALE, Route: ORAL, Dose: 0, 0.125% IN DRINKING WATER FOR LIFE, STUDY DURATION: 90-100 WK, Dose: 0, 0.125% IN DRINKING WATER FOR LIFE, STUDY DURATION: 90-100 WK, Tumor Site: Type of Lesion: LUNG: ADENOMA OR ADENOCARCINOMA", "result": "active; positive"}]}
{"smiles": "CC(C)(C)Br", "values": [{"measurement": "carcinogen call", "setting": "Species: MOUSE, Route: INTRAPERITONEAL, Tumor Site: Type of Lesion: LUNG", "result": "active; positive"}]}
